In US20030108893A1, “Method for establishing neurogically relevant properties of a material” (priority 1999, published 2003):

Experiments:
threadworm (C. elegans) [1] = experiment: Neurotoxic substance administered to nematodes in liquid medium; behavior or morphology phenotype observed; assay type: in vivo, Caenorhabditis elegans; conditions: for behavioral anomalies or changes in morphology after administration of neurotoxic compound: nematodes (threadworms), general finding
Excerpt: The response to the administration of neurotoxic substances which act on the central nervous system was investigated in nematodes of the genus Caenorhabditis and, in particular, in Caenorhabditis elegans. In this threadworm, a characteristic phenotype, which is expressed, for example, in movement disturbances, a reduced number of progeny or morphological changes,; is observed both in the larval stages L1, L2, L3 and L4 (see “The Nematode Caenorhabditis elegans”; Wood et al., Cold Spring Harbor Laboratory, 1988) and in the adult stage following incubation with a neurotoxic substance. This can be ascertained by observing the phenotype microscopically, by determining the number of progeny per animal and time period or by detecting nerve cells which have been labeled with particular dyes (e.g. GFP fusion proteins) and whose color changes after they have been acted upon by a neurotoxic substance.
(§1) Per assay, about 100 threadworm (C. elegans) test animals at a defined stage of development (e.g. L1 larval stage) were incubated in liquid medium at constant temperature (e.g. 20° C.). […]
This can be expressed in severe movement disturbances, a reduced number of progeny or morphological changes.

threadworm (C. elegans) [2] = experiment: Preincubation with test material before MPTP; reversion or prevention of the MPTP phenotype; assay type: in vivo, Caenorhabditis elegans; conditions: 100 C. elegans; three days of preincubation with L-DOPA, MPTP added on the third day; observed on day 6 (Figure B)
Excerpt: It is possible to expose the nematodes to the materials to be investigated in a wide variety of ways. For example, it is possible to culture the animals in Petri dishes containing an agar which contains neurotoxic substances, on the one hand, and the substances of interest on the other. However, it is also possible to bathe the animals, in a simple manner, in the materials to be investigated. As well as being particularly simple, this variant also makes it possible to standardize the concentrations more easily and to achieve a higher throughput in a screening system. For an investigation, use is made of populations of the animals, which populations are then incubated with different solutions of the materials and at different concentrations. […] The observation, namely the reversion or prevention of the behavioral anomaly or the morphological change following neurotoxin treatment, makes it possible to draw a conclusion with regard to the possible activity and site of action of the material whose suitability as a drug is under investigation.
as §1

Structure (SMILES)	behavioral anomalies or changes in morphology after administration of neurotoxic compound (threadworm (C. elegans) [1])	characteristic phenotype (severe movement disturbances, reduced number of progeny or morphological changes) (threadworm (C. elegans) [1]; about 100 C. elegans, e.g. L1 larval stage, liquid medium, e.g. 20° C., MPTP 16 to 500 μg/ml, observed e.g. on day 6 (Figure A))	expression of the phenotype brought about by MPTP after incubation with test material (threadworm (C. elegans) [2])
NCCc1cc(O)c(O)cc1O [6-OHDA, 6-hydroxy-dopamine]	exhibit behavioral anomalies or changes in their morphology	–	–
CN1CC=C(c2ccccc2)CC1 [MPTP, 1-methyl-4-phenyl-1,2,3,6-tetrahydropyridine]	exhibit behavioral anomalies or changes in their morphology	a characteristic phenotype was observed	–
N[C@@H](Cc1ccc(O)c(O)c1)C(=O)O [L-DOPA, L-3,4-dihydroxyphenylalanine]	–	–	the phenotype which is brought about by MPTP is not expressed
